Columns and labels:
dogs = assay: Electrophysiological variables (AERP, VERP, repolarization periods) in halothane-anesthetized dogs; type: in vivo, dog; settings: 3 mg/kg
Procedure: Animals were obtained through Kitayama Labes Co., Ltd. (Nagano, Japan). All experiments were approved by the Toho University Animal Care and User Committee (No. 18-51-395) and performed according to the Guideline for the Care and Use of Laboratory Animals of Toho University.
The dogs were initially anesthetized with thiopental sodium (30 mg/kg, i.v.). After intubation with a cuffed endotracheal tube, anesthesia was maintained by inhalation of halothane (1% v/v) vaporized in oxygen with a volume-limited ventilator (SN-480-3; Shinano Manufacturing Co., Ltd., Tokyo, Japan). Tidal volume and respiratory rate were set at 20 mL/kg and 15 breaths/min, respectively. […] To prevent blood clotting, heparin calcium (100 IU/kg) was intravenously administered through a flush line of the catheter sheath placed at the right femoral vein.
The lead II electrocardiogram was obtained from the limb electrodes. The P-wave duration, PR interval, QRS width and QT interval were measured, and QT interval was corrected with Van de Water's formula: QTc=QT-0.087×(RR-1,000) with RR given in ms. The J-Tpeak and Tpeak-Tend were measured as follows. When the end of T-wave was obscure, we used the monophasic action potential (MAP) signal as a guide to estimate the end. The J-Tpeak was corrected for the heart rate with a coefficient as previously described (J-Tpeakc=J-Tpeak/RR^0.58 with RR given in seconds).
A standard 6-French, quad-polar electrodes catheter (Cordis-Webster Inc., Baldwin Park, Calif., USA) was positioned at the non-coronary cusp of the aortic valve through the left femoral artery to obtain the His bundle electrogram. Another 6-French, quad-polar electrode catheter (Cordis-Webster Inc.) was positioned at the sinus nodal areas of the right atrium through the right femoral vein to electrically pace and to record the local electrogram. A bi-directional steerable MAP recording/pacing combination catheter (1675P; EP Technologies, Inc., CA, USA) was positioned at the endocardium of the interventricular septum in the right ventricle through the left femoral vein to obtain MAP signals. The signals were amplified with a DC preamplifier (model 300; EP Technologies, Inc.). The duration of the MAP signals was measured as an interval, along a horizontal line corresponding to the diastolic baseline, from the MAP upstroke to the desired repolarization level. The interval (ms) at 90% repolarization was defined as MAP90.
The heart was electrically driven with a cardiac stimulator (SEC-3102; Nihon Kohden Co., Ltd.) via the pacing electrodes of the combination catheter placed in the right ventricle or the electrodes of the catheter placed at the right atrium. The stimulation pulses were rectangular in shape, 1-2 V (about twice the threshold voltage) and 1 ms duration. The MAP90 of the ventricle was measured during sinus rhythm (MAP90(sinus)) and at a pacing cycle length of 400 ms (MAP90(CL400)) and 300 ms (MAP90(CL300)). The atrial effective refractory period (AERP) and ventricular effective refractory period (VERP) were assessed with the programmed electrical stimulation. The pacing protocol consisted of 5 beats of basal stimuli in a cycle length of 400 ms followed by an extra stimulus of various coupling intervals. Starting in the late diastole, the coupling interval was shortened in 5-ms decrements until the additional stimulus could no longer elicit a response. The AERP and VERP were defined as the shortest coupling interval that could produce a response. The duration of the terminal repolarization period of the ventricle, reflecting phase-3 repolarization time of the action potential, was calculated by the difference between the MAP90(CL400) and VERP (terminal repolarization period=MAP90(CL400)−VERP) at the same site to estimate the extent of electrical vulnerability of the ventricular muscle.

CYP2J2 = target: T1, CYP2J2 (Homo sapiens, UniProt P51589); assay: In-vitro metabolic half-life with recombinant CYP2J2; type: in vitro ADME; settings: recombinant CYP2J2, NADPH, 1 μM drug, read-out: Metabolic half-life (T1/2)
T1 sequence (P51589 1-502): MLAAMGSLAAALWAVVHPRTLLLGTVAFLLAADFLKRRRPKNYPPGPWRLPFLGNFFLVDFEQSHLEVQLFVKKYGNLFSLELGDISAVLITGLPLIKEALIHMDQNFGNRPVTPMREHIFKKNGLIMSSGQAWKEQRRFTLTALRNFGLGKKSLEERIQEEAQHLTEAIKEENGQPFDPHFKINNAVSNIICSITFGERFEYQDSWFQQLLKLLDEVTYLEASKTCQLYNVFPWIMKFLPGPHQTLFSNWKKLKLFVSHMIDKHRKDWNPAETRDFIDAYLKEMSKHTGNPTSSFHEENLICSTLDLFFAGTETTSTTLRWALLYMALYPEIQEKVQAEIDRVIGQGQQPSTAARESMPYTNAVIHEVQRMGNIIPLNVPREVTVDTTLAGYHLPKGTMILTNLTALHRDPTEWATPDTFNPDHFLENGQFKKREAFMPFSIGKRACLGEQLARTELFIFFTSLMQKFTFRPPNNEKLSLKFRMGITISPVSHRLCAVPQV

[1] = Metabolic stability (substrate depletion) with HLM; type: in vitro ADME, human; settings: for elimination rate constant k by HLM / half-life at 1 μM: 1 μM substrate, HLM 0.5 mg/mL; for half-life at 1 μM / microsomal CLint at 1 μM: human, pooled human liver microsomes, pH 7.4; for half-life at 1 μM: read-out: T1/2 by HLM; for microsomal CLint at 1 μM: substrate depletion, read-out: Intrinsic clearance, CLint HLM
Procedure: The metabolic stability experiments were performed to derive intrinsic clearance (CLint) values via the substrate depletion method. […] NADPH A was subsequently added to initiate the reaction. […] The reaction mixtures were incubated at 37° C. with gentle agitation. At the respective time points (0-60 min), 80 μL of the reaction mixture was quenched using an equal volume of ice-cold ACN with 1 μM tamoxifen as internal standard (IS). The samples were then centrifuged at 3220 g at 4° C. for 30 min before transferring the supernatant to a 96-well plate for liquid chromatography-tandem mass spectrometry (LC-MS/MS) analysis.
The mean of triplicate peak area ratios for each compound was normalized to that of the same compound at the 0 min time point to obtain the percentage of substrate remaining at each time point. This was plotted against incubation time for each compound and the data was then fitted to a one-phase decay model using GraphPad Prism software (version 8.02; GraphPad Inc., San Diego, Calif.) to obtain an estimation for the elimination rate constant (k). CLint was then calculated based on equation 3:
In equation 3, k=elimination rate constant (min^−1); V=volume of incubation mixture (mL); P=amount of protein in mixture (mg).

[2] = Parallel artificial membrane permeability assay (PAMPA); type: in vitro ADME; settings: read-out: Effective permeability
Procedure: The aqueous solubility of each compound was measured in universal buffer (pH 7.4) using MultiscreenHTS PCF Filter Plates. The effective permeability of each compound was measured using the parallel artificial membrane permeability assay (PAMPA).

SMILES	ΔAERP (dogs; 20 min after administration)	ΔVERP (dogs; 20 min after administration)	ΔJ-Tpeakc (early repolarization period) (dogs; 60 min after administration)	ΔTRP (terminal repolarization period) (dogs; 60 min after administration)	ΔTpeak-Tend (late repolarization period) (dogs; 60 min after administration)	half-life at 1 μM (CYP2J2) [min]	elimination rate constant k by HLM [1] [min⁻¹]	half-life at 1 μM [1] [min]	microsomal CLint at 1 μM [1] [µL/min/mg]	Papp [2] [×10⁻⁶ cm/s]	ΔAERP (dogs; 30 min after administration)	ΔVERP (dogs; 30 min after administration)	ΔAERP (dogs; 45 min after administration)	ΔJ-Tpeakc (early repolarization period) (dogs; 45 min after administration)	ΔTRP (terminal repolarization period) (dogs; 45 min after administration)	ΔTpeak-Tend (late repolarization period) (dogs; 45 min after administration)	ΔVERP (dogs; 45 min after administration)
CCCCc1oc2ccc(NS(C)(=O)=O)cc2c1C(=O)c1ccc(OCCCN(CCCC)CCCC)cc1.Cl [Dronedarone]	+43	+23	+7	+11	+25	4.95	0.06446	10.8	129	3.46 ± 0.5	–	–	–	–	–	–	–
Cl.[2H]c1c(NS(C)(=O)=O)c([2H])c2c(C(=O)c3ccc(OCCCN(CCCC)CCCC)cc3)c(CCCC)oc2c1[2H] [Poyendarone, Methanesulfonamide, N-(2-butyl-3-(4-(3-(dibutylamino)propoxy)benzoyl)-1-benzo(4,6,7-d3)-furan-5-yl)hydrochloride]	–	–	–	–	–	5.32	0.06472	10.7	129	4.08 ± 0.5	+25	+14	+34	−5	−1.5	+1	+13
